Measured values taken from patent publication US20230093861A1, “RAPAMYCIN ANALOGS AS MTOR INHIBITORS” (Revolution Medicines, Inc., priority 2017, published 2023).
Like-named read-outs stand apart in the source and are kept apart here.

Legend:
P-P70S6K (T389) = experiment: Cell based AlphaLISA assay, inhibition of P-P70S6K (T389) (mTORC1 substrate phosphorylation) in MDA-MB-468 cells; conditions: Homo sapiens, 4 h, AlphaLISA, two to four hours at 37° C., read-out: pIC50 for Inhibition of mTORC1 and mTORC2 Substrate Phosphorylation, P-P70S6K-(T389) (converted)
Method in brief: (§1)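 AlphaLISA SureFire Ultra read-out of P-4E-BP1 (T37/46), P-P70S6K (T389) and P-Akt (S473) in MDA-MB-468 cells after compound treatment; cells lysed in kit buffer. Alpha signal read in duplicate; IC50 from normalized concentration-response regression with control-based normalization.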

P-4E-BP1 (T37/46) = experiment: Cell based AlphaLISA assay, inhibition of P-4E-BP1 (T37/46) (mTORC1 substrate phosphorylation) in MDA-MB-468 cells; conditions: Homo sapiens, AlphaLISA, two to four hours at 37° C., read-out: pIC50 for Inhibition of mTORC1 and mTORC2 Substrate Phosphorylation, P-4E-BP1-(T37/46) (converted)
Method in brief: as §1

P-Akt (S473) = experiment: Cell based AlphaLISA assay, inhibition of P-Akt (S473) (mTORC2 substrate phosphorylation) in MDA-MB-468 cells; conditions: Homo sapiens, AlphaLISA, two to four hours at 37° C., read-out: pIC50 for Inhibition of mTORC1 and mTORC2 Substrate Phosphorylation, p-AKT 1/2/3 -(S473) (converted)
Method in brief: as §1

`CO[C@H]1C[C@@H]2CC[C@@H](C)[C@@](O)(O2)C(=O)C(=O)N2CCCC[C@H]2C(=O)O[C@H]([C@H](C)C[C@@H]2CC[C@@H](OCCCCc3cn(CCOCCOCCOCCOCCOCCOCCOCCOCCC(=O)N4CCc5cc(Cn6nc(-c7ccc8oc(N)nc8c7)c7c(N)ncnc76)ccc5C4)nn3)[C@H](OC)C2)C[C@@H](OC)[C@H](C)/C=C(\C)[C@@H](O)[C@@H](OC)C(=O)[C@H](C)C[C@H](C)/C=C/C=C/C=C/1C` [Example 92] was tested, and the IC50 (P-P70S6K (T389)) was < 1 nM, the IC50 (P-4E-BP1 (T37/46); 4 h) was 3.16 to 31.6 nM and the IC50 (P-Akt (S473); 4 h) was 31.6 to 1000 nM.
For `COc1ccc(-c2ccc3ncc4c(c3c2)n(-c2ccc(N3CCN(C(=O)CCOCCOCCOCCOCCOCCOCCOCCOCCn5cc(CCCCO[C@@H]6CC[C@@H](C[C@@H](C)[C@@H]7CC(=O)[C@H](C)/C=C(\C)[C@@H](O)[C@@H](OC)C(=O)[C@H](C)C[C@H](C)/C=C/C=C/C=C(\C)[C@@H](OC)C[C@@H]8CC[C@@H](C)[C@@](O)(O8)C(=O)C(=O)N8CCCC[C@H]8C(=O)O7)C[C@H]6OC)nn5)CC3)c(C(F)(F)F)c2)c(=O)n4C)cn1` [Example 11], the IC50 (P-P70S6K (T389)) was < 1 nM, the IC50 (P-4E-BP1 (T37/46); MDA-MB-468, 4 h) was < 3.16 nM and the IC50 (P-Akt (S473); MDA-MB-468, 4 h) was < 3.16 nM.
